Measured values reported in patent US20090042820A1, “Tubulin Binding Anti Cancer Agents And Prodrugs Thereof” (Threshold Pharmaceuticals, Inc., priority 2004, published 2009).
Where two headings read alike, the source gives them in different places.

Assays:
[1] = system: H460 cells; assay: Alamar Blue antiproliferation assay, H460 cell line; type: cell-based, human
Method: (§1) To determine the effect of the compounds of the present invention on cell proliferation, the antiproliferative activity of these compounds was tested in a multi-well Alamar Blue based assay (at 2 h and 3 days). Cell growth in the presence and absence of the test compound as tabulated in Table 1 was compared, as measured by a fluorescence plate reader at excitation 550 nm and emission 590 nm (see Biosource International Inc., Tech Application Notes, Use of Alamar Blue in the measurement of Cell Viability and Toxicity, Determining IC50). H460 cells (ATCC HTB-177 ([…]), 4,000 cells/well/200 μl) and LNCap cells (ATCC CRL-1740, 6,000 cells/well/200 μl) were seeded in a 96 well plate in RPMI medium (Invitrogen Corporation, Carlsbad, Calif.). After 24 hours, these plates were divided into 3 groups—Control group, 2 h treatment group and 3 day treatment group.
(§2) In the 2 h treatment group, after 2 h the cells were rinsed to remove the test compound and incubated for 3 days, followed by staining with AlamarBlue. The cells in the 3-day treatment group were incubated for 3 days, followed by staining with AlamarBlue. In the Control group, AlamarBlue was added to the plate at (i) day 0 and (ii) day 3 and measured to establish the control reading. In all the groups, the capacity of the cells to proliferate was measured 6 hours after addition of AlamarBlue by a fluorescence plate reader at excitation 550 nm and emission 590 nm.

[2] = system: MES-SA/DX5; assay: Alamar Blue antiproliferation assay, MES-SA/DX5; type: cell-based; conditions: Homo sapiens, 72 h; MES-SA/DX5, 3 Day
[3] = system: HT29; assay: Alamar Blue antiproliferation assay, HT29; type: cell-based; conditions: Homo sapiens, HT-29, 72 h; HT29, 3 Day
[4] = system: cancer cell; assay: Cancer cell antiproliferation assay (cell line not stated); type: cell-based; conditions: summary statement; read-out: GI50 or IC50 in a cancer cell antiproliferation assay
Method: In one aspect, the present invention provides a compound of formula (I-VII) having a GI50, GI90, IC50, or IC50 of about 0.001 to about 1000 nM, about 0.01 to about 100 nm, about 0.1 to about 50 nM, and about 1 to about 10 nM in a cancer cell antiproliferation assay. In one embodiment, the present invention provides a compound of formula (I) having a GI50 or IC50 of about 0.01 to about 100 nm, about 0.1 to about 50 nm, and about 1 to about 10 nm in a cancer cell antiproliferation assay. In various embodiments, said antiproliferation assays employ cancer cell including but not limited to gastric, colon, breast, and non-small cell lung cancer. In various embodiments, the […] cancer cell used is MESSA or doxorubicin resistant MESSA/DX5 cell; the colon cancer cell is HT29 cell; the breast cancer cell is T47D cell; and the non-small cell lung cancer cell is H460 cell.
as §1, §2

[5] = system: MES-SA; assay: Alamar Blue antiproliferation assay, MES-SA; type: cell-based; conditions: Homo sapiens, 72 h, 3 Day
[6] = Homo sapiens, NCI-H460, 2 h treatment, then 3 days incubation, read-out: GI50 (nM) 2 Hour
[7] = Homo sapiens, NCI-H460, 72 h, 3 day treatment, read-out: GI50 (nM) 3 Days
[8] = Homo sapiens, NCI-H460, 2 h treatment, then 3 days incubation, read-out: GI90 (nM) 2 Hour
[9] = Homo sapiens, NCI-H460, 72 h, 3 day treatment, read-out: GI90 (nM) 3 Day

| SMILES | GI50 [1, 6] [nM] | GI50 [1, 7] [nM] | also measured |
| --- | --- | --- | --- |
| COc1ccc2c(C(=O)c3cc(OC)c(OC)c(OC)c3)nn(S(=O)(=O)Cc3ccc([N+](=O)[O-])cc3)c2c1 [Compound 33] | > 10000 | 1000 | – |
| COc1ccc2c(C(=O)c3cc(OC)c(OC)c(OC)c3)nn(P(=O)(OC)OC)c2c1 [Compound 49] | – | 15.8 | – |
| COc1ccc2c(C(=O)c3cc(OC)c(OC)c(OC)c3)n[nH]c2c1 [Compound 9] | > 1000 | 100 | IC90 [1, 8]: > 1000 nM; IC90 [1, 9]: 316 nM |
| COc1cc(C(=O)c2n[nH]c3c(C#CC(=O)O)c(OC)ccc23)cc(OC)c1OC [Compound 37] | 501 | 3.2 | GI50 [2]: 3.5 nM; GI50 [3]: 5 nM; IC50 [4]: 1 to 50 nM; GI50 [5]: 3.2 nM |
| COc1ccc2c(C(=O)c3cc(OC)c(OC)c(OC)c3)nn(CC(=O)O)c2c1 [Compound 62] | > 1000 | 630 | – |
| COc1ccc2c(/C(=N/O)c3cc(OC)c(OC)c(OC)c3)n[nH]c2c1 [Compound 11] | > 1000 | 631 | IC90 [1, 8]: > 1000 nM; IC90 [1, 9]: > 1000 nM |
| COc1ccc2c(C(=O)c3cc(OC)c(OC)c(OC)c3)nn(S(=O)(=O)c3ccc4ccccc4c3)c2c1 [Compound 26] | > 10000 | 630 | – |
| COc1ccc2c3n(nc2c1)Cc1c(cc(OC)c(OC)c1OC)C3=O [Compound 32] | > 10000 | > 10000 | – |
| COc1cc(C(=O)c2n[nH]c3c(Cl)c(OC)ccc23)cc(OC)c1OC [Compound 21] | > 10000 | 40 | – |
| COc1cc(C(=O)c2n[nH]c3c(CCCCO)c(OC)ccc23)cc(OC)c1OC [Compound 61] | > 1000 | > 1000 | – |
| CCC(=O)n1nc(C(=O)c2cc(OC)c(OC)c(OC)c2)c2ccc(OC)cc21 [Compound 50] | > 10000 | 20 | – |
| COc1ccc2c(C(=O)c3cc(OC)c(OC)c(OC)c3N)n[nH]c2c1 [Compound 45] | – | 158 | – |
| COc1ccc2c(C(=O)c3cc(OC)c(OC)c(OC)c3)nn(CO)c2c1 [Compound 56] | > 10000 | 50.1 | – |
| COc1ccc2c(C(=O)c3cc(OC)c(OC)c(OC)c3)nn(S(=O)(=O)c3cccc4ccccc34)c2c1 [Compound 25] | > 10000 | 630 | – |
| COc1cc(C(=O)c2n[nH]c3c(C#C[C@@H](C)O)c(OC)ccc23)cc(OC)c1OC [Compound 71] | – | – | GI50 ([1]; 3 day treatment, read-out: GI50 (nM) 3 Days): 12.5 nM |
| COc1cc(C(=O)c2nn(Cc3ncc([N+](=O)[O-])n3C)c3c(Br)c(OC)ccc23)cc(OC)c1OC [Compound 38] | > 10000 | 631 | – |
| COc1ccc2c(C(=O)c3cc(OC)c(OC)c(OC)c3)n(Cc3ccccc3)nc2c1 [Compound 17] | > 1000 | > 1000 | IC90 [1, 8]: > 1000 nM; IC90 [1, 9]: > 1000 nM |
| COc1ccc2c(c1)N=N/C2=C/c1cc(OC)c(OC)c(OC)c1 [Compound 19] | > 10000 | > 1000 | IC90 [1, 8]: > 1000 nM; IC90 [1, 9]: > 1000 nM |
| COc1ccc2c(C(=O)c3cc(OC)c(OC)c(OC)c3)n(C)nc2c1 [Compound 13] | > 1000 | > 1000 | IC90 [1, 8]: > 1000 nM; IC90 [1, 9]: > 1000 nM |
| C#Cc1c(OC)ccc2c(C(=O)c3cc(OC)c(OC)c(OC)c3)nn([C@@H]3OC(CO)[C@@H](O)[C@H](O)C3O)c12 (stereo partly shown) [Compound 80] | – | > 1000 | – |
| C#Cc1c(OC)ccc2c(C(=O)c3cc(OC)c(OC)c(OC)c3)nn(CC(=O)O)c12 [Compound 74] | – | > 1000 | – |
| COc1ccc2c(C(=O)c3cc(OC)c(OC)c(OC)c3)nn(P(=O)(OCc3ccccc3)OCc3ccccc3)c2c1 [Compound 27] | > 10000 | 251 | – |
| COc1ccc2c(C(=O)c3cc(OC)c(OC)c(OC)c3Br)nn(S(=O)(=O)c3ccc(C)cc3)c2c1 [Compound 48] | – | 630 | – |
| COc1ccc2c(C(=O)c3cc(OC)c(OC)c(OC)c3)n(CO)nc2c1 [Compound 81] | – | > 1000 | – |
| COc1cc(C(=O)c2n[nH]c3c(C(=O)O)c(OC)ccc23)cc(OC)c1OC [Compound 59] | > 1000 | 794 | – |

| SMILES | GI50 [1, 6] [nM] | GI50 [1, 7] [nM] | also measured |
| --- | --- | --- | --- |
| COc1ccc2c(C(=O)c3cc(OC)c(OC)c(OC)c3)nn(CCO)c2c1 [Compound 64] | > 1000 | 630 | – |
| COc1cc(C(=O)c2n[nH]c3c(I)c(OC)ccc23)cc(OC)c1OC [Compound 22] | > 10000 | 40 | – |
| C#Cc1c(OC)ccc2c(C(=O)c3cc(OC)c(OC)c(OC)c3)nn(C(=O)OCc3ccc([N+](=O)[O-])o3)c12 [Compound 75] | – | > 1000 | – |
| COc1cc(C(=O)c2n[nH]c3c(C#CCN)c(OC)ccc23)cc(OC)c1OC [Compound 53] | 630 | 158 | – |
| COc1ccc2c(C(=O)c3cc(OC)c(OC)c(OC)c3)nn(C(=O)Cc3ccc(OCc4ccccc4)cc3)c2c1 [Compound 34] | > 10000 | 126 | – |
| COc1cc(C(=O)c2n[nH]c3c(C#CC=O)c(OC)ccc23)cc(OC)c1OC [Compound 76] | – | 79.4 | – |
| COc1cc(C(=O)c2n[nH]c3c(CCC(C)(C)O)c(OC)ccc23)cc(OC)c1OC [Compound 65] | > 1000 | > 1000 | – |
| COc1ccc2c(C(=O)c3cc(OC)c(OC)c(OC)c3)nn(CC(N)=O)c2c1 [Compound 63] | > 1000 | 630 | – |
| COc1cc(C(=O)c2n[nH]c3c(C#CCNC(=O)C(F)(F)F)c(OC)ccc23)cc(OC)c1OC [Compound 52] | > 1000 | 100 | – |
| COc1ccc2[nH]nc(C(=O)c3cc(OC)c(OC)c(OC)c3)c2c1 [Compound 42] | > 1000 | > 1000 | IC90 [1, 8]: > 1000 nM; IC90 [1, 9]: > 1000 nM |
| COc1ccc2c(/C(=N/NC(C)=O)c3cc(OC)c(OC)c(OC)c3)n[nH]c2c1 [Compound 44] | > 5000 | 1580 | IC90 [1, 8]: > 5000 nM; IC90 [1, 9]: > 5000 nM |
| COc1ccc2c(C(=O)c3cc(OC)c(OC)c(OC)c3)nn(S(=O)(=O)c3ccc([N+](=O)[O-])cc3)c2c1 [Compound 23] | 630 | 100 | – |
| COc1ccc2c(C(=O)c3cc(OC)c(OC)c(OC)c3)nn(S(=O)(=O)c3ccc(O)cc3)c2c1 [Compound 29] | > 10000 | 630 | – |
| COc1ccc2c(C(=O)c3cc(OC)c(OC)c(OC)c3)nn(C)c2c1 [Compound 12] | > 1000 | > 1000 | IC90 [1, 8]: > 1000 nM; IC90 [1, 9]: > 1000 nM |
| COc1ccc2c(/C(=N/N)c3cc(OC)c(OC)c(OC)c3)n[nH]c2c1 [Compound 10] | > 1000 | 398 | IC90 [1, 8]: > 1000 nM; IC90 [1, 9]: 1000 nM |
| COc1cc(C(=O)c2n[nH]c3ccc(F)cc23)cc(OC)c1OC [Compound 43] | > 10000 | > 10000 | IC90 [1, 8]: > 1000 nM; IC90 [1, 9]: > 1000 nM |
| C#Cc1c(OC)ccc2c(C(=O)c3cc(OC)c(OC)c(OC)c3)nn(CC(N)=O)c12 [Compound 73] | – | 630 | – |
| COc1ccc2c(C(=O)c3cc(OC)c(OC)c(OC)c3)nn(S(=O)(=O)c3ccc(C)cc3)c2c1 [Compound 47] | – | 25 | – |
| COc1ccc2c(C(=O)c3cc(OC)c(OC)c(OC)c3)nn(C(=O)c3ccccc3)c2c1 [Compound 20] | 630 | 100 | – |
| COc1ccc2c(C(=O)c3cc(OC)c(OC)c(OC)c3)nn(S(=O)(=O)c3ccc(N)cc3)c2c1 [Compound 24] | 10000 | 501 | – |
| COc1cc(C(=O)c2n[nH]c3c(C#CC(C)(C)O)c(OC)ccc23)cc(OC)c1OC [Compound 36] | > 10000 | 63 | – |
| COc1cc(C(=O)c2n[nH]c3c(S(=O)(=O)c4ccc(OCc5ccccc5)cc4)c(OC)ccc23)cc(OC)c1OC [Compound 31] | > 10000 | > 10000 | – |
| COc1cc(C(=O)c2n[nH]c3c(C#Cc4cccc(O)c4)c(OC)ccc23)cc(OC)c1OC [Compound 69] | – | 1000 | – |
| COc1cc2[nH]nc(C(=O)c3cc(OC)c(OC)c(OC)c3)c2cc1OC [Compound 77] | – | > 1000 | – |
